We go through three molecules from patent US7148200B2, “Method for treating cancer” (Toyo Suisan Kaisha, Ltd., priority 1999, dated 2006).

Counter-ions that a name gives are not always drawn.

The assay has as its target T1, DNA polymerase α (Bos taurus, UniProt A0AAA9TD94).
T1 construct: from tissue; host or cells: bovine thymus
T1 sequence (A0AAA9TD94 1-1441): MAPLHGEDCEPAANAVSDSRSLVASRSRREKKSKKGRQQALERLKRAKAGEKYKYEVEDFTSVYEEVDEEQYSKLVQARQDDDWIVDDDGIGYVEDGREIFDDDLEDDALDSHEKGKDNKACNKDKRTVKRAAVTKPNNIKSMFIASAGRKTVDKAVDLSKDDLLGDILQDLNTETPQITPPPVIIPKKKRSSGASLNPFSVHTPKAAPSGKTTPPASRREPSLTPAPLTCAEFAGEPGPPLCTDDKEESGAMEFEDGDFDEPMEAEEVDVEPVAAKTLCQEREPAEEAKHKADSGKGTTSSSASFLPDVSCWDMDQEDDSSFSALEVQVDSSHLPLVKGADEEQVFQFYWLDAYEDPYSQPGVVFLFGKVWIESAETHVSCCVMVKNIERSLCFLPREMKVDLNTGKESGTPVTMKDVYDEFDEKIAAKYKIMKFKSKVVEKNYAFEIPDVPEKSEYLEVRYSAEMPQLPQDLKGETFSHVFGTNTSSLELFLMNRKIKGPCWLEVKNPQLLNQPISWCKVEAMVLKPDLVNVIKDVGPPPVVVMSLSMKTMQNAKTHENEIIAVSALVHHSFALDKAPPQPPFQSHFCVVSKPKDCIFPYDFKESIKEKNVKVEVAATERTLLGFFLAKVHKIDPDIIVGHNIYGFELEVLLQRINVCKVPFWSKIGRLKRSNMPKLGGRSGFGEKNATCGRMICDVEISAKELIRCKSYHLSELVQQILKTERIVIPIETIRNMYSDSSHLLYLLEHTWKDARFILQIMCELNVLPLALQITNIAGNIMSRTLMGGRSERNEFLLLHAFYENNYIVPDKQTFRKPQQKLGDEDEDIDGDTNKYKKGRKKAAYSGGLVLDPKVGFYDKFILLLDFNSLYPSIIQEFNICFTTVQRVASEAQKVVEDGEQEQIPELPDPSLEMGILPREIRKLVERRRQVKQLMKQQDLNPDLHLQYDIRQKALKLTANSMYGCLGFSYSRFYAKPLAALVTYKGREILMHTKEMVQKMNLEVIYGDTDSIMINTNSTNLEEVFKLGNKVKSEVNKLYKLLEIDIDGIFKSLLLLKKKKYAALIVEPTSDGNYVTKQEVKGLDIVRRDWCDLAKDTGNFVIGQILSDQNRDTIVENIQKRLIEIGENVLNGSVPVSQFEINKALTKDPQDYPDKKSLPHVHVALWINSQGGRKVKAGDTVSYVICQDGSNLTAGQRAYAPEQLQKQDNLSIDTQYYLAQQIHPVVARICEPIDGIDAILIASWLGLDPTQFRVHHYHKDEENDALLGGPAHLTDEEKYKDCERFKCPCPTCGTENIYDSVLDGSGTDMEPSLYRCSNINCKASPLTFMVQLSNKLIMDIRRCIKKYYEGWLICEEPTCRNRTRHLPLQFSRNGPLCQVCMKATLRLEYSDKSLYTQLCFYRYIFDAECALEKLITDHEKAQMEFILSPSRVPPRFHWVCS
The assay can be described thus: Assay 1: inhibitory effect against DNA polymerase α ([3H]-dTTP incorporation). Format: biochemical. The following applies: DNA polymerase α from bovine thymus, 37° C., 60 minutes. The procedure:
An assay on inhibitory effect against a DNA polymerase α was carried out in the following manner.
0.05 U of a DNA polymerase α purified and isolated from a bovine thymus by an immunoaffinity column was mixed with each of test compounds, sulfopyranosylacylglycerol (hereinafter, simply referred to as “SQAG”) derivatives, namely, SQAG 1, SQAG 2 and SQAG 3 (listed in table 1) dissolved in DMSO. Each mixture was added with a buffer containing inorganic salts for the enzymatic reaction, [^3H]-labeled dTTP and compounds for reaction containing a template DNA strand, and incubated at 37° C. for 60 minutes.
After the enzymatic reaction was quenched, the resultant reaction product was fixed on a dedicated filter and subjected to measurement by a liquid scintillation counter. The amount of enzymatically incorporated dTTP was calculated as a radiation dose (cpm) of [^3H]. Note that, each of the sulfopyranosylacylglycerol derivatives is a mixture of the S- and R-configurations with respect to an absolute configuration of the carbon of the 2-position of the glycerol moiety.
Take `CCCC/C=C\CCCCCCCC(=O)OCC(O)CO[C@H]1O[C@H](CS(=O)(=O)O)[C@@H](O)[C@H](O)[C@H]1O` (mixture of isomers) [SQAG1, 3-O-(6-deoxy-6-sulfo-α-D-glucopyranosyl)-1-o-myristoleoly-glycerol sodium salt]: the IC50 (usually the concentration that gives 50% inhibition) was 17.1 µM.
The value for `CCCCCC/C=C\CCCCCCCC(=O)OCC(O)CO[C@H]1O[C@H](CS(=O)(=O)O)[C@@H](O)[C@H](O)[C@H]1O` (stereo partly drawn) [SQAG2, 3-O-(6-deoxy-6-sulfo-α-D-glucopyranosyl)-1-O-palmitoleoyl-glycerol sodium salt] was 9.54 µM; that for `CCCCCCCC/C=C\CCCCCCCC(=O)OCC(O)CO[C@H]1O[C@H](CS(=O)(=O)O)[C@@H](O)[C@H](O)[C@H]1O` (stereo partly drawn) [SQAG3, 3-O-(6-deoxy-6-sulfo-α-D-glucopyranosyl)-1-O-oleoyl-glycerol Sodium Salt] was 3.31 µM.
